How the values were obtained:
Format in all cases: cell-based
GRANTA-519 = experiment: Cytotoxicity study (MTS), 5 days; conditions: Homo sapiens, MCL
Protocol: (§1) EOL-1, GRANTA-519, Jeko-1, Jurkat, Molm-13, NOMO-1, SKM-1, and SU-DHL-6 were obtained from Leibniz-Institut DSMZ. HL-60, KG-1, Mino, MV4-11, Raji, and THP-1 were obtained from ATCC. HEL92.1.7 were obtained from the European Collection of Authenticated Cell Cultures and Ramos cells were a gift from Dr. M. Andreeff (MD Anderson Cancer Center, Houston, Tex.). All cells were cultured in complete media as per the manufacturer's instructions. Early passage cells were collected and frozen within 1 month of receipt from the manufacturer. All experiments were performed on early passage cells within 6 weeks of thawing. MycoScope Mycoplasma Detection Kit (Genlantis catalog #MY01050) was used to screen for potential contamination every 6 months. Peripheral blood mononuclear cells (PBMC) were isolated from fresh healthy donor blood using Ficoll-Paque PLUS (GE Healthcare, catalog #17-1440-02). For synthesis of COMPOUND I free base, 10-phenanthroline-5,6-dione (1.2 equivalents), acetic acid (22 volumes), 2-methyl-5-fluoroindole-3-carboxaldehyde (1.0 equivalents), and ammonium acetate (15 equivalents) were reacted under medium agitation while heated at 95±5° C. for 3 to 7 hours. The reaction was cooled to between 20° C. and 25° C., filtered, rinsed with acetic acid and ethanol, and dried with N2 purge, followed by a wash with 2:1 ethanol:water at 65° C. for 4 hours, cooling to 20° C. to 25° C., filtration, rinsing with 2:1 ethanol:water and EtOAc, and then dried with N2 purge. The purity by HPLC was 99.5%, and the structural identity was confirmed by FT-IR, ^1HNMR, ^13C NMR, and LC/MS. For Fe(COMPOUND I)3 synthesis, five molar equivalents of ferrous ion FeSO4 in water was added to COMPOUND I dissolved in ethanol. The deep red precipitate produced, Fe(COMPOUND I)3, was collected and dissolved in DMSO and characterized by HPLC and mass spectrometry as >95% pure. CX-5461 (7) was purchased from MedChem Express (catalog #HY-13323).
(§2) Cells were plated and treated with vehicle DMSO or COMPOUND I (10 concentrations) in 96-well plates for 5 days at 37° C. and 5% CO2. Cell viability was measured using CellTiter 96 AQueous one solution (MTS) cell proliferation assay (Promega, catalog #G3581), and IC50 values were calculated using GraphPad Prism 7 software.

HL-60 = experiment: Cytotoxicity study (MTS), 5 days; conditions: Homo sapiens, AML
Protocol: as §1, §2

Jurkat = experiment: Cytotoxicity study (MTS), 5 days; conditions: Homo sapiens, T-ALL
Protocol: as §1, §2

Nomo-1 = experiment: Cytotoxicity study (MTS), 5 days; conditions: Homo sapiens, AML
Protocol: as §1, §2

Ramos = experiment: Cytotoxicity study (MTS), 5 days; conditions: Homo sapiens, Burkitt's
Protocol: as §1, §2

THP1 = experiment: Cytotoxicity study (MTS), 5 days; conditions: Homo sapiens, THP-1; AML
Protocol: as §1, §2

[1] = system: AML cells (MV4-11, KG-1, EOL-1); experiment: Flow cytometry cell-cycle analysis, time course; conditions: IC50 concentration
Protocol: Cells were treated as described above. To determine apoptosis, cells were stained with FITC-Annexin V and propidium iodide (PI; BD Pharmingen, catalog #556570) and then analyzed on BD Accuri C6 flow cytometer. To measure DNA synthesis and phases of cell cycle, treated cells were stained with 5-ethynyl-2′-deoxyuridine (Edu) Alexa Fluor 488 (Thermo Fisher Scientific, catalog #C10425) and PI (PI/RNase A staining solution, BD Biosciences, catalog #550825). The dead cells were excluded from analysis by using Live/Dead Fixable Far Red Dead Cell Stain Kit (Thermo Fisher Scientific, catalog #L34973). Staining was performed as per the manufacturers' instructions.
There was no perturbation of cell-cycle phase distribution in cells treated with vehicle alone. An increase in the fraction of cells in G0-G1 was detected as early as 2 hours, and this fraction continued to increase in a time-dependent manner throughout the 24-hour period of drug exposure (FIGS. 9D-F).

[2] = system: protein levels in MV4-11 cells; experiment: Reverse-phase protein array (RPPA) analysis; conditions: 500 nmol/L, 6 h vs vehicle
Protocol: MV4-11 cells were treated as for RNA sequencing (RNA-seq) analysis and whole-cell extracts were prepared for Western blotting. Samples were processed at MD Anderson Cancer Center reverse-phase protein array (RPPA) core facility (details at https://www.mdanderson.org/research/research-resources/core-facilities/functional-proteomics-rppa-core/rppa-process.html). Protein expression levels were averaged for 3 replicates and heatmaps were drawn using GraphPad Prism 7.
To examine the effect of COMPOUND I on protein expression, MV4-11 cells were treated as above and analyzed by RPPA microarray to quantify >300 total and post-translationally modified proteins. […] Of note, there was an increase of cleaved caspase-7, which is indicative of apoptosis. GO analysis of the differentially expressed proteins was performed utilizing the Broad Molecular Signatures database. Significant GO terms included cell death and G1-S cell-cycle arrest pathways, a formal description of G0-G1 arrest, and consistent with the cell-cycle effects detected by flow cytometry and the RNA-seq analyses (FIG. 18C). An increase in E2F1, TP53, γH2AX, CHEK1 phos-S296, and CHEK2 phos-T68 supported the concept that DNA damage pathways are triggered by COMPOUND I treatment. In addition, increases in XBP1, HSPA5, and MAPK14 (p38) phos-T180/182 were observed, indicating ER or cellular stress ([…]; ref 15). DDR pathways can also signal through the MAPK pathway activating MAPK14 and MAPK8 (JNK), and cross-talk between the DDR pathway and ER stress is a well-established phenomenon although it is unclear which pathway represents the initiating event. A significant portion of the differentially expressed proteins and mRNAs are target genes of MYC oncoprotein, which is known to be an integral part of both cell-cycle and apoptotic pathway regulation.

Compound `Cc1[nH]c2ccc(F)cc2c1-c1nc2c3cccnc3c3ncccc3c2[nH]1` [COMPOUND I, 2-(5-fluoro-2-methyl-1H-indol-3-yl)-1H-imidazo[4,5-f][1,10]phenanthroline] has an IC50 (GRANTA-519) of 0.082 µM, an IC50 (HL-60) of 0.46 µM and an IC50 (Jurkat) of 0.52 µM. For the same compound, the IC50 (Nomo-1) was 1.45 µM, the IC50 (Ramos) was 0.35 µM and the IC50 (THP1) was 0.34 µM. For the same compound, the “earliest time an increase in the fraction of cells in G0-G1 was detected” value [1] was 2 h, the “fold change ACC_pS79” value [2] was 1.302 fold and the “fold change ADAR1” value [2] was 1.308 fold. For the same compound, the “fold change Bad_pS112” value [2] was 1.55 fold, the “fold change BiP-GRP78” value [2] was 1.29 fold and the “fold change CD29” value [2] was 1.291 fold. The “fold change Caspase-3” value [2] was 2.382 fold, the “fold change Caspase-7-cleaved” value [2] was 1.671 fold and the “fold change Chk1” value [2] was 1.433 fold. The “fold change Chk2_pT68” value [2] was 1.312 fold, the “fold change Cyclin-B1” value [2] was 0.5944 fold and the “fold change Cyclin-E1” value [2] was 1.361 fold. The “fold change DM-Histone-H3” value [2] was 2.008 fold, the “fold change DM-K9-Histone-H3” value [2] was 2.003 fold and the “fold change E2F1” value [2] was 1.423 fold. For the same compound, the “fold change Ets-1” value [2] was 0.6034 fold, the “fold change H2AX_pS140” value [2] was 4.196 fold and the “fold change Hif-1-alpha” value [2] was 1.482 fold. The “fold change Histone-H3” value [2] was 5.083 fold, the “fold change N-Ras” value [2] was 1.397 fold and the “fold change NDRG1_pT346” value [2] was 0.4566 fold. For the same compound, the “fold change PAI-1” value [2] was 1.257 fold, the “fold change PAR” value [2] was 2.707 fold and the “fold change PLK1” value [2] was 0.4946 fold. For the same compound, the “fold change Pdcd-1L1” value [2] was 1.262 fold, the “fold change Rb_pS807_S811” value [2] was 0.6486 fold and the “fold change S6_pS240_S244” value [2] was 0.6467 fold. The “fold change Syk” value [2] was 1.433 fold, the “fold change Ubq-Histone-H2B” value [2] was 1.375 fold and the “fold change XBP-1” value [2] was 1.369 fold. The “fold change p38_pT180_Y182” value [2] was 2.022 fold and the “fold change p53” value [2] was 1.288 fold.

Reference: patent publication US11149047B2, “Aryl imidazoles for treatment of cancer” (Aptose Biosciences Inc., priority 2017, dated 2021)
